# Tests used:
# HCV-NS5b = molecular target: T1, HCV-NS5b (Hepatitis C virus genotype 1b, UniProt Q9WMX2); test: HCV-NS5b enzyme assay (incorporation of radiolabeled UTP); assay type: biochemical; details: for inhibition at 33 µM: enzyme inhibition at compound concentration of 33 uM; for inhibition at 100 µM: read-out: % inh@100, enzyme inhibition at compound concentration of 100 uM
# T1 construct: (His)6 (C); made in house; host or cells: XL-1 cells (E. coli), IPTG-inducible plasmid, nickel-NTA purification
# Outline: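 Percent inhibition, background-corrected against uninhibited control, was measured at 100 and 33 uM compound. Incorporation of [3H]-UTP (10 μM each NTP) into biotinylated HCV-template RNA, 37° C for 2 h, pH 7.5, scintillation proximity. Enzyme: C-terminally truncated (21 aa), His6-tagged NS5b from XL-1.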
# [1] = cited from earlier work
SMILES,inhibition at 33 µM (HCV-NS5b),inhibition at 100 µM (HCV-NS5b),"teratogenicity / embryotoxicity ([1]; human, in vivo)",patients with significant hemolysis ([1]; patients treated at currently recommended doses)
"COc1ccc(-c2ccc(Cl)cc2)c(-c2ccc3cc(-c4nc5cc(C(=O)O)ccc5n4Cc4ccccc4)ccc3n2)c1 [Compound 559, 1-Benzyl-2-[2-(4′-chloro-4-methoxy-biphen-2-yl)-quinolin-6-yl]-1H-benzoimidazole-5-carboxylic acid]",101%,101%,–,–
"COc1ccc(-c2ccc(F)c(F)c2)c(-c2ccc3cc(-c4nc5cc(C(=O)O)ccc5n4C4CCCCC4)ccc3n2)c1 [Compound 560, 1-Cyclohexyl-2-[2-(3′,4′-difluoro-4-methoxy-biphen-2-yl)-quinolin-6-yl]-1H-benzoimidazole-5-carboxylic acid]",101%,101%,–,–
"COc1ccc(-c2cc(Cl)cc(Cl)c2)c(-c2ccc3cc(-c4nc5cc(C(=O)O)ccc5n4C4CCCCC4)ccc3n2)c1 [Compound 562, 1-Cyclohexyl-2-[2-(3′,5′-dichloro-4-methoxy-biphen-2-yl)-quinolin-6-yl]-1H-benzoimidazole-5-carboxylic acid]",102%,101%,–,–
"O=C(O)c1ccc2c(c1)nc(-c1ccc3nc(-c4cc(F)ccc4-c4ccc(Cl)cc4)ccc3c1)n2C1CCCCC1 [Compound 563, 2-[2-(4′-Chloro-4-fluoro-biphen-2-yl)-quinolin-6-yl]-1-cyclohexyl-1H-benzoimidazole-5-carboxylic acid]",101%,101%,–,–
"CCC(CC)n1c(-c2ccc3nc(-c4cc(OC)ccc4-c4ccc(Cl)cc4)ccc3c2)nc2cc(C(=O)O)ccc21 [Compound 564, 2-[2-(4′-Chloro-4-methoxy-biphen-2-yl)-quinolin-6-yl]-1-(1-ethyl-propyl)-1H-benzoimidazole-5-carboxylic acid]",102%,101%,–,–
"O=C(O)c1ccc2c(c1)nc(-c1ccc3nc(-c4cc5c(cc4-c4ccc(Cl)cc4)OCCCO5)ccc3c1)n2C1CCCCC1 [Compound 565, 2-{2-[8-(4-chloro-phenyl)-3,4-dihydro-2H-benzo[b][1,4]dioxepin-7-yl]-quinolin-6-yl}-1-cyclohexyl-1H-benzoimidazole-5-carboxylic acid]",102%,100%,–,–
"COc1ccc(-c2ccc(Cl)cc2)c(-c2ccc3cc(-c4nc5cc(C(=O)O)ccc5n4CC4CCCO4)ccc3n2)c1 (stereo not shown) [Compound 566, 2-[2-(4′-chloro-4-methoxy-biphen-2-yl)-quinolin-6-yl]-1-(tetrahydrofuran-2-yl-methyl)-1H-benzoimidazole-5-carboxylic acid]",99.2%,100%,–,–
"O=C(O)c1ccc2c(c1)nc(-c1ccc3nc(-c4cc(Cl)ccc4-c4ccc(Cl)cc4)ccc3c1)n2C1CCCCC1 [Compound 567, 1-cyclohexyl-2-[2-(4,4′-dichloro-biphen-2-yl)-quinolin-6-yl]-1H-benzoimidazole-5-carboxylic acid]",101%,97.7%,–,–
"COc1ccc(-c2ccc(Cl)cc2)c(-c2ccc3cc(-c4nc5cc(C(=O)O)ccc5n4C4CC5CCC4C5)ccc3n2)c1 (stereo not shown) [Compound 568, 1-bicyclo[2.2.1]hept-2-yl-2-[2-(4′-chloro-4-methoxy-biphen-2-yl)-quinolin-6-yl]1H-benzoimidazole-5-carboxylic acid]",101%,100%,–,–
"Nc1ccc(-c2ccc(Cl)cc2)c(-c2ccc3cc(-c4nc5cc(C(=O)O)ccc5n4C4CCCCC4)ccc3n2)c1 [Compound 569, 2-[2-(4-amino-4′-chloro-biphen-2-yl)-quinolin-6-yl]-1-cyclohexyl-1H-benzoimidazole-5-carboxylic acid]",101%,101%,–,–
"NC(=O)c1ncn([C@@H]2O[C@H](CO)[C@@H](O)[C@H]2O)n1 [Ribavirin, ribavirin]",–,–,teratogenic and embryotoxic,10-20%

# Source: US7511145B2 (Genelabs Technologies, Inc., priority 2003, dated 2009)
